# System: E coli O157:H7
# Experiment: Effect of pH on Concrobium activity, lysis under light microscope (Example 5)
# Assay type: cell-based
# Conditions: one million CFU
# Method: One million CFU of E coli O157:H7 were incubated with the following and samples of each were observed under a light microscope:
# 1. 1 mL of Concrobium, normal saline and 0.1 N (normal) sodium hydroxide 2. 1 mL of Concrobium and normal saline 3. 1 mL normal saline
structure (smiles),measurement,value
[Na+].[OH-] [sodium hydroxide],lysing effect on E coli in suspension,lysed the E. coli in suspension

# From patent US20090074878A1, “Non-Toxic Water Soluble Inorganice Antimicrobal Polymer and Related Methods” (priority 2005, published 2009)
